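48-hour exposure; five concentrations; linearly interpolated endpoints. TGI: concentration producing complete growth inhibition.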
How the values were obtained:
Test in all cases: NCI-60 cell line screen, 48 h
786-0 renal = system: 786-0 renal
CCRF-CEM leukemia = system: CCRF-CEM leukemia
COLO 205 colon = system: COLO 205 colon
IGROV1 ovarian = system: IGROV1 ovarian
M14 melanoma = system: M14 melanoma
MALME-3M melanoma = system: MALME-3M melanoma
MCF7 breast = system: MCF7 breast
MDA-N = system: MDA-N
NCI-H226 lung = system: NCI-H226 lung
NCI-H23 lung = system: NCI-H23 lung
OVCAR-5 ovarian = system: OVCAR-5 ovarian
OVCAR-8 ovarian = system: OVCAR-8 ovarian
SF-295 CNS = system: SF-295 CNS
SK-MEL-28 melanoma = system: SK-MEL-28 melanoma
SK-OV-3 ovarian = system: SK-OV-3 ovarian
SNB-75 CNS = system: SNB-75 CNS
SW-620 colon = system: SW-620 colon
UO-31 renal = system: UO-31 renal
OVCAR-3 ovarian = system: OVCAR-3 ovarian
UACC-62 melanoma = system: UACC-62 melanoma

| SMILES | TGI (786-0 renal) [µM] | TGI (CCRF-CEM leukemia) [µM] | TGI (COLO 205 colon) [µM] | TGI (IGROV1 ovarian) [µM] | TGI (M14 melanoma) [µM] | TGI (MALME-3M melanoma) [µM] | TGI (MCF7 breast) [µM] | TGI (MDA-N) [µM] | TGI (NCI-H226 lung) [µM] | TGI (NCI-H23 lung) [µM] | TGI (OVCAR-5 ovarian) [µM] | TGI (OVCAR-8 ovarian) [µM] | TGI (SF-295 CNS) [µM] | TGI (SK-MEL-28 melanoma) [µM] | TGI (SK-OV-3 ovarian) [µM] | TGI (SNB-75 CNS) [µM] | TGI (SW-620 colon) [µM] | TGI (UO-31 renal) [µM] | TGI (OVCAR-3 ovarian) [µM] | TGI (UACC-62 melanoma) [µM] |
| --- | --- | --- | --- | --- | --- | --- | --- | --- | --- | --- | --- | --- | --- | --- | --- | --- | --- | --- | --- | --- |
| CCO/C=N\C1=C(C#N)SC2=N/C(=C\c3ccc(OC)cc3)C(=O)N21 | > 100 | > 100 | > 100 | > 100 | > 100 | > 100 | > 100 | > 100 | > 100 | > 100 | > 100 | > 100 | > 100 | > 100 | > 100 | 46.6 | > 100 | > 100 | – | – |
| COC(=O)C1=CS/C(=C2\S[C@@H]3[C@H](S2)[C@H]2C=C[C@@H]3C2)S1 | > 100 | > 100 | > 100 | > 100 | > 100 | > 100 | > 100 | > 100 | > 100 | > 100 | – | > 100 | 17.9 | > 100 | > 100 | > 100 | > 100 | > 100 | > 100 | > 100 |
| CC1(C)/C(=C/N=O)N(O)C(C)(C)N1O | > 100 | > 100 | > 100 | > 100 | > 100 | > 100 | > 100 | > 100 | > 100 | > 100 | > 100 | > 100 | > 100 | > 100 | > 100 | > 100 | > 100 | > 100 | > 100 | > 100 |
| CCCCCCCCCCCC(=O)OCC(C[As](=O)(O)O)OC(=O)CCCCCCCCCCC (stereo unspecified) | 26.7 | 30.8 | 25.4 | 3.5 | 4.48 | 6.49 | 13 | 13 | 42.9 | 18 | 34.1 | 24.8 | 26.7 | 10.1 | 30.1 | 21.1 | 26.8 | 17.4 | 22.8 | 3.95 |
| CCOC(=O)c1cc2c3ccn(Cc4ccccc4)c3c3c(C)[nH]oc3c2n1 | > 100 | > 100 | > 100 | > 100 | > 100 | > 100 | > 100 | > 100 | > 100 | > 100 | > 100 | > 100 | > 100 | > 100 | – | > 100 | > 100 | > 100 | > 100 | > 100 |
| O=c1cc(N2CCCC2)[nH]c(=O)n1-c1cccc(Cl)c1 | > 100 | > 100 | > 100 | > 100 | > 100 | > 100 | > 100 | > 100 | > 100 | > 100 | > 100 | > 100 | > 100 | – | > 100 | > 100 | > 100 | – | > 100 | > 100 |
| CCOC(=O)Cc1nc2cc(F)c(F)cc2[nH]c1=O | > 100 | > 100 | > 100 | – | > 100 | > 100 | > 100 | > 100 | > 100 | > 100 | > 100 | > 100 | > 100 | > 100 | > 100 | > 100 | > 100 | > 100 | > 100 | > 100 |
| N#CCCC(CCC#N)(CCC#N)NO | > 100 | – | > 100 | > 100 | > 100 | > 100 | > 100 | > 100 | > 100 | > 100 | > 100 | > 100 | > 100 | – | > 100 | > 100 | > 100 | > 100 | – | > 100 |
| CC(=O)[C@@H](C)C(=O)N1C(=O)OC[C@@]12[C@@H]1CC[C@@H](C1)C2(C)C | > 100 | > 100 | > 100 | > 100 | > 100 | > 100 | > 100 | > 100 | > 100 | > 100 | > 100 | > 100 | > 100 | > 100 | > 100 | > 100 | > 100 | > 100 | – | > 100 |
| CC(=O)Oc1ccc2cc(-c3ccccc3OC(C)=O)c(=O)oc2c1 | > 100 | 60.6 | > 100 | – | > 100 | > 100 | > 100 | > 100 | 70.7 | > 100 | > 100 | > 100 | > 100 | > 100 | – | 34.4 | > 100 | 28.4 | > 100 | – |
